Data as given in PubChem BioAssay AID2060492 (Molecular Pharmacology Branch, DTP, NCI, 2025).
One block for each compound: values may come before it.

Tested on: 695427-040-R-J1-PDC complex spheroids, viability percent T/C
Assay: Anticancer human tumor 695427-040-R-J1-PDC patient-derived colon adenocarcinoma cell line growth inhibition [GQUAD]
Conditions: for IC50: curve of first compound; for viability, T/C: stronger effect = lower value
Procedure, shortened: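 Tumor cells were grown as complex spheroids with HUVEC endothelial cells and mesenchymal stem cells as stroma. G-quadruplex stabilizers were combined with targeted agents over half-log dilutions from near the clinical Cmax, or from 10 microM.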

[1] = second compound 0.0316 µM, first compound 0.0316 µM
[2] = second compound 0.0316 µM, first compound 0.316 µM
[3] = second compound 0.1 µM, first compound 0.0316 µM
[4] = second compound 0.1 µM, first compound 0.316 µM
[5] = second compound 0.316 µM, first compound 0.0316 µM
[6] = second compound 0.316 µM, first compound 0.316 µM
[7] = second compound 1 µM, first compound 0.0316 µM
[8] = second compound 1 µM, first compound 0.316 µM
[9] = second compound 3.16 µM, first compound 0.0316 µM
[10] = second compound 3.16 µM, first compound 0.316 µM
[11] = second compound 10 µM, first compound 0.0316 µM
[12] = second compound 10 µM, first compound 0.316 µM
[13] = second compound 0.0316 µM, first compound 0.1 µM
[14] = second compound 0.0316 µM, first compound 1 µM
[15] = second compound 0.0316 µM, first compound 3.16 µM
[16] = second compound 0.0316 µM, first compound 10 µM
[17] = second compound 0.1 µM, first compound 0.1 µM
[18] = second compound 0.1 µM, first compound 1 µM
[19] = second compound 0.1 µM, first compound 3.16 µM
[20] = second compound 0.1 µM, first compound 10 µM
[21] = second compound 0.316 µM, first compound 0.1 µM
[22] = second compound 0.316 µM, first compound 1 µM
[23] = second compound 0.316 µM, first compound 3.16 µM
[24] = second compound 0.316 µM, first compound 10 µM
[25] = second compound 1 µM, first compound 0.1 µM
[26] = second compound 1 µM, first compound 1 µM
[27] = second compound 1 µM, first compound 3.16 µM
[28] = second compound 1 µM, first compound 10 µM
[29] = second compound 3.16 µM, first compound 0.1 µM
[30] = second compound 3.16 µM, first compound 1 µM
[31] = second compound 3.16 µM, first compound 3.16 µM
[32] = second compound 3.16 µM, first compound 10 µM
[33] = second compound 10 µM, first compound 0.1 µM
[34] = second compound 10 µM, first compound 1 µM
[35] = second compound 10 µM, first compound 3.16 µM
[36] = second compound 10 µM, first compound 10 µM
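Also: spheroids exposed to compounds for seven days before readout.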

IC50 (second compound 0.0316 µM): > 316 nM
IC50 (second compound 0.1 µM): > 316 nM
IC50 (second compound 0.316 µM): > 316 nM
IC50 (second compound 1 µM): > 316 nM
IC50 (second compound 3.16 µM): < 0.999 nM
IC50 (second compound 10 µM): < 0.999 nM
SMILES: Cc1[nH]c2ccccc2c1CCNCc1ccc(/C=C/C(=O)NO)cc1 + Cc1cnc(CNC(=O)c2c(=O)c3ccc(N4CCCN(C)CC4)nc3n3c2sc2ccccc23)cn1
viability, T/C (second compound 0.0316 µM, first compound 0.000999 µM): 108%
viability, T/C (second compound 0.0316 µM, first compound 0.00316 µM): 89.4%
viability, T/C (second compound 0.0316 µM, first compound 0.00999 µM): 105%
viability, T/C [1]: 87.8%
viability, T/C (second compound 0.0316 µM, first compound 0.0999 µM): 86.9%
viability, T/C [2]: 80.5%
viability, T/C (second compound 0.1 µM, first compound 0.000999 µM): 90.7%
viability, T/C (second compound 0.1 µM, first compound 0.00316 µM): 84%
viability, T/C (second compound 0.1 µM, first compound 0.00999 µM): 84.3%
viability, T/C [3]: 80.5%
viability, T/C (second compound 0.1 µM, first compound 0.0999 µM): 94.8%
viability, T/C [4]: 65.5%
viability, T/C (second compound 0.316 µM, first compound 0.000999 µM): 74.9%
viability, T/C (second compound 0.316 µM, first compound 0.00316 µM): 80.8%
viability, T/C (second compound 0.316 µM, first compound 0.00999 µM): 85.5%
viability, T/C [5]: 85%
viability, T/C (second compound 0.316 µM, first compound 0.0999 µM): 90.4%
viability, T/C [6]: 58.1%
viability, T/C (second compound 1 µM, first compound 0.000999 µM): 50.9%
viability, T/C (second compound 1 µM, first compound 0.00316 µM): 73.3%
viability, T/C (second compound 1 µM, first compound 0.00999 µM): 69.2%
viability, T/C [7]: 66.6%
viability, T/C (second compound 1 µM, first compound 0.0999 µM): 67.5%
viability, T/C [8]: 39%
viability, T/C (second compound 3.16 µM, first compound 0.000999 µM): 41.6%
viability, T/C (second compound 3.16 µM, first compound 0.00316 µM): 51.4%
viability, T/C (second compound 3.16 µM, first compound 0.00999 µM): 52.9%
viability, T/C [9]: 46.1%
viability, T/C (second compound 3.16 µM, first compound 0.0999 µM): 43.1%
viability, T/C [10]: 9.89%
viability, T/C (second compound 10 µM, first compound 0.000999 µM): 21.6%
viability, T/C (second compound 10 µM, first compound 0.00316 µM): 31.5%
viability, T/C (second compound 10 µM, first compound 0.00999 µM): 32%
viability, T/C [11]: 31.1%
viability, T/C (second compound 10 µM, first compound 0.0999 µM): 14.5%
viability, T/C [12]: 0.3%

IC50 (second compound 0.0316 µM): > 10000 nM
IC50 (second compound 0.1 µM): > 10000 nM
IC50 (second compound 0.316 µM): > 10000 nM
IC50 (second compound 1 µM): > 10000 nM
IC50 (second compound 3.16 µM): < 31.6 nM
IC50 (second compound 10 µM): < 31.6 nM
SMILES: Nc1ccn(C2OC(CO)C(O)C2(F)F)c(=O)n1 (stereo not drawn) + Cc1cnc(CNC(=O)c2c(=O)c3ccc(N4CCCN(C)CC4)nc3n3c2sc2ccccc23)cn1
viability, T/C [1]: 91.9%
viability, T/C [13]: 81.2%
viability, T/C [2]: 73.6%
viability, T/C [14]: 49.4%
viability, T/C [15]: 55.1%
viability, T/C [16]: 53.9%
viability, T/C [3]: 93.8%
viability, T/C [17]: 72.5%
viability, T/C [4]: 65.9%
viability, T/C [18]: 52%
viability, T/C [19]: 56.4%
viability, T/C [20]: 61.3%
viability, T/C [5]: 70%
viability, T/C [21]: 66%
viability, T/C [6]: 61.7%
viability, T/C [22]: 64.8%
viability, T/C [23]: 64.2%
viability, T/C [24]: 53.5%
viability, T/C [7]: 60.6%
viability, T/C [25]: 55.2%
viability, T/C [8]: 54.9%
viability, T/C [26]: 52.8%
viability, T/C [27]: 56.4%
viability, T/C [28]: 54.6%
viability, T/C [9]: 42.7%
viability, T/C [29]: 50.9%
viability, T/C [10]: 54.3%
viability, T/C [30]: 47.3%
viability, T/C [31]: 46.4%
viability, T/C [32]: 36%
viability, T/C [11]: 35.1%
viability, T/C [33]: 41.7%
viability, T/C [12]: 40.1%
viability, T/C [34]: 29%
viability, T/C [35]: 36.7%
viability, T/C [36]: 29.8%

IC50 (second compound 0.0316 µM): 418 nM
IC50 (second compound 0.1 µM): 445 nM
IC50 (second compound 0.316 µM): 281 nM
IC50 (second compound 1 µM): 172 nM
IC50 (second compound 3.16 µM): < 31.6 nM
IC50 (second compound 10 µM): < 31.6 nM
SMILES: O=C(NO)c1cnc(N2CCN(S(=O)(=O)c3ccc4ccccc4c3)CC2)nc1 + Cc1cnc(CNC(=O)c2c(=O)c3ccc(N4CCCN(C)CC4)nc3n3c2sc2ccccc23)cn1
viability, T/C [1]: 91.1%
viability, T/C [13]: 78.5%
viability, T/C [2]: 64.4%
viability, T/C [14]: 6.15%
viability, T/C [15]: 0.22%
viability, T/C [16]: 0.22%
viability, T/C [3]: 87.2%
viability, T/C [17]: 65.5%
viability, T/C [4]: 68.3%
viability, T/C [18]: 7.35%
viability, T/C [19]: 0.34%
viability, T/C [20]: 0.28%
viability, T/C [5]: 85.3%
viability, T/C [21]: 70.1%
viability, T/C [6]: 49.8%
viability, T/C [22]: 6.3%
viability, T/C [23]: 0.18%
viability, T/C [24]: 0.19%
viability, T/C [7]: 56.4%
viability, T/C [25]: 58.3%
viability, T/C [8]: 41.7%
viability, T/C [26]: 0.29%
viability, T/C [27]: 0.1%
viability, T/C [28]: 0.17%
viability, T/C [9]: 48.4%
viability, T/C [29]: 45.6%
viability, T/C [10]: 23.1%
viability, T/C [30]: 0.14%
viability, T/C [31]: 0.11%
viability, T/C [32]: 0.12%
viability, T/C [11]: 24.2%
viability, T/C [33]: 13.8%
viability, T/C [12]: 0.3%
viability, T/C [34]: 0.15%
viability, T/C [35]: 0.17%
viability, T/C [36]: 0.18%

IC50 (second compound 0.0316 µM): > 10000 nM
IC50 (second compound 0.1 µM): > 10000 nM
IC50 (second compound 0.316 µM): > 10000 nM
IC50 (second compound 1 µM): > 10000 nM
IC50 (second compound 3.16 µM): < 31.6 nM
IC50 (second compound 10 µM): < 31.6 nM
SMILES: O=c1[nH]cc(F)c(=O)[nH]1 + Cc1cnc(CNC(=O)c2c(=O)c3ccc(N4CCCN(C)CC4)nc3n3c2sc2ccccc23)cn1
viability, T/C [1]: 108%
viability, T/C [13]: 70.6%
viability, T/C [2]: 70.8%
viability, T/C [14]: 69.7%
viability, T/C [15]: 76%
viability, T/C [16]: 105%
viability, T/C [3]: 94.2%
viability, T/C [17]: 79.4%
viability, T/C [4]: 72.4%
viability, T/C [18]: 74.9%
viability, T/C [19]: 94.2%
viability, T/C [20]: 97.5%
viability, T/C [5]: 83.6%
viability, T/C [21]: 67.5%
viability, T/C [6]: 80.9%
viability, T/C [22]: 67.9%
viability, T/C [23]: 86.4%
viability, T/C [24]: 85.8%
viability, T/C [7]: 77.8%
viability, T/C [25]: 58%
viability, T/C [8]: 63.8%
viability, T/C [26]: 71.4%
viability, T/C [27]: 80.1%
viability, T/C [28]: 77.6%
viability, T/C [9]: 44.9%
viability, T/C [29]: 53.1%
viability, T/C [10]: 59.9%
viability, T/C [30]: 45.3%
viability, T/C [31]: 72.2%
viability, T/C [32]: 54.3%
viability, T/C [11]: 28.3%
viability, T/C [33]: 54.2%
viability, T/C [12]: 48.8%
viability, T/C [34]: 43.8%
viability, T/C [35]: 54.6%
viability, T/C [36]: 49.9%
